Results published in patent US20150284331A1 (priority 2012, published 2015).

How the values were obtained:
[1] = target: T1, acetylcholinesterase (Rattus norvegicus, UniProt P37136); test: biochemical; assay type: biochemical; conditions: rat cortex enzyme; final concentration 4×10−5 mol/L
T1 construct: Acetylcholinesterase: rat cortex; from tissue; host or cells: rat cortex
T1 sequence (P37136 32-614): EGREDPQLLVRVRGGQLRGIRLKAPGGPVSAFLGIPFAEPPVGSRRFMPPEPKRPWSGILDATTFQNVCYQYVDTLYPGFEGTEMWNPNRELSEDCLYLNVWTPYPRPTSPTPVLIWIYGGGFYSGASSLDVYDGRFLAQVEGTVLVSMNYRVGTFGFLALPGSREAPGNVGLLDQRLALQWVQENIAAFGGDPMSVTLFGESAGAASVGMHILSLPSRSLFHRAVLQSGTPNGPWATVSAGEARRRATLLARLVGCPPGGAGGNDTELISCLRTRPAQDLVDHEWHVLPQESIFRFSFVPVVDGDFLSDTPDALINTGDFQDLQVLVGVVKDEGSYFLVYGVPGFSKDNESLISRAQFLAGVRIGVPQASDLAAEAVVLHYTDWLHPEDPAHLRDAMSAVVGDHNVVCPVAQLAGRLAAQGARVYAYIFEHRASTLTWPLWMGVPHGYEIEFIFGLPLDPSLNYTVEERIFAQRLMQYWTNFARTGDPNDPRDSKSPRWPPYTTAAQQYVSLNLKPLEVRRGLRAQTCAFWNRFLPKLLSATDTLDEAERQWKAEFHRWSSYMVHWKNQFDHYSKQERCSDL
Protocol: (§1) Sample processing: All samples were formulated as 10-2 mol/L solution by using 100% DMSO. 10-2 mol/L solution was used in microdetermination. 1 μL was taken to use in single tube experiment.
(§2) Solvent control: 0.4% DMSO was used in microdetermination. The inhibition ratio of the sample was obtained wherein the effect of solvent was deducted.
Acetylcholinesterase: rat cortex

[2] = target: T2, butyrylcholinesterase (Rattus norvegicus, UniProt Q9JKC1); test: inhibition of butyrylcholinesterase (rat serum); assay type: biochemical; conditions: rat serum enzyme; final concentration 4×10−5 mol/L
T2 construct: Butyrylcholinesterase: rat serum; from tissue; host or cells: rat serum
T2 sequence (Q9JKC1 24-597): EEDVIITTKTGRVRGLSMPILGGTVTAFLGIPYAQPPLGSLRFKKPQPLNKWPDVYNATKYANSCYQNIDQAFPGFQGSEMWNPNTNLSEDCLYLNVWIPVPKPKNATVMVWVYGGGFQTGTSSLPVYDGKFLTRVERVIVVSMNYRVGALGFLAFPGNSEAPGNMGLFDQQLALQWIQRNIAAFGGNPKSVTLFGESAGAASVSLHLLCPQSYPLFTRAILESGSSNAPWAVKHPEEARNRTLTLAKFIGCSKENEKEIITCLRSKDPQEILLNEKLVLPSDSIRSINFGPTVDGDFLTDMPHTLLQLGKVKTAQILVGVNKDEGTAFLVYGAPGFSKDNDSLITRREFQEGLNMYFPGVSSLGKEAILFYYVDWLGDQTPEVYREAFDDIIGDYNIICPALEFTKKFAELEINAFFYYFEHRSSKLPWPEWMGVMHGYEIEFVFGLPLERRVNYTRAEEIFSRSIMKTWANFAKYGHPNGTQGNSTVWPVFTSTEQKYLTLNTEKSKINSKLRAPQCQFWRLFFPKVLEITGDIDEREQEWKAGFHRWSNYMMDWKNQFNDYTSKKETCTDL
Protocol: as §1, §2
Butyrylcholinesterase: rat serum

With COc1cc2c(cc1OC)C(=O)C(CC1(F)CCN(Cc3cc4c(cc3Br)OCO4)CC1)C2 (stereo not shown) [DC9, 2-((1-((6-bromobenzo[d][1,3]dioxol-5-yl)methyl)-4-fluoropiperidin-4-yl)methyl)-5,6-dimethoxy-2,3-dihydro-1H-inden-1-one] the “acetylcholinesterase inhibitory activity inhibition ratio (%)” value [1] was 97.34% and the “butyrylcholinesterase inhibitory activity inhibition ratio (%)” value [2] was 33.79%.

In the case of COc1cc2c(cc1OC)C(=O)C(CC1(F)CCN(CC3CCCCCC3)CC1)C2 (stereo not shown) [DC34, 2-((1-(cycloheptylmethyl)-4-fluoropiperidin-4-yl)methyl)-5,6-dimethoxy-2,3-dihydro-1H-inden-1-one], the “acetylcholinesterase inhibitory activity inhibition ratio (%)” value [1] is reported as 95.57% and the “butyrylcholinesterase inhibitory activity inhibition ratio (%)” value [2] is reported as 68.48%.

With COc1cc2c(cc1OC)C(=O)C(CC1(F)CCN(Cc3cc(F)cc(F)c3)CC1)C2 (stereo not shown) [DC27, 2-((1-(3,5-difluorobenzyl)-4-fluoropiperidin-4-yl)methyl)-5,6-dimethoxy-2,3-dihydro-1H-inden-1-one] the “acetylcholinesterase inhibitory activity inhibition ratio (%)” value [1] was 97.34% and the “butyrylcholinesterase inhibitory activity inhibition ratio (%)” value [2] was 18.07%.

COc1cc2c(cc1OC)C(=O)C(CC1(F)CC3CCC(C1)N3Cc1cc(F)c(F)cc1F)C2 (stereo not shown) [DC57, 2-((3-fluoro-8-(2,4,5-trifluorobenzyl)-8-azabicyclo[3.2.1]octan-3-yl)methyl)-5,6-dimethoxy-2,3-dihydro-1H-inden-1-one] was tested, and the “acetylcholinesterase inhibitory activity inhibition ratio (%)” value [1] was 96.75% and the “butyrylcholinesterase inhibitory activity inhibition ratio (%)” value [2] was 1017%.

For COc1cc2c(cc1OC)C(=O)C(CC1(F)CCN(Cc3cccc(C)c3)CC1)C2 (stereo not shown) [DC29, 2-((4-fluoro-1-(3-methylbenzyl)piperidin-4-yl)methyl)-5,6-dimethoxy-2,3-dihydro-1H-inden-1-one], the “acetylcholinesterase inhibitory activity inhibition ratio (%)” value [1] was 97.78% and the “butyrylcholinesterase inhibitory activity inhibition ratio (%)” value [2] was 64.92%.

In the case of COc1cc2c(cc1OC)C(=O)C(CC1(F)CCN(Cc3c(F)c(F)c(F)c(F)c3F)CC1)C2 (stereo not shown) [DC28, 2-((4-fluoro-1-((perfluorophenyl)methyl)piperidin-4-yl)methyl)-5,6-dimethoxy-2,3-dihydro-1H-inden-1-one], the “acetylcholinesterase inhibitory activity inhibition ratio (%)” value [1] is reported as 96.5%.

For COc1cc2c(cc1OC)C(=O)C(CC1(F)CC3CCC(C1)N3Cc1ccccc1C#N)C2 (stereo not shown) [DC43, 2-((3-((5,6-dimethoxy-1-oxo-2,3-dihydro-1H-inden-2-yl)methyl)-3-fluoro-8-azabicyclo[3.2.1]octan-8-yl)methyl)benzonitrile], the “acetylcholinesterase inhibitory activity inhibition ratio (%)” value [1] was 88.9%.

With COc1cc2c(cc1OC)C(=O)C(CC1(F)CC3CCC(C1)N3Cc1ccc(-c3ccccc3)cc1)C2 (stereo not shown) [DC76, 2-((8-([1,1′-biphenyl]-4-ylmethyl)-3-fluoro-8-azabicyclo[3.2.1]octan-3-yl)methyl)-5,6-dimethoxy-2,3-dihydro-1H-inden-1-one] the “acetylcholinesterase inhibitory activity inhibition ratio (%)” value [1] was 85.3%.

With COc1cc2c(cc1OC)C(=O)C(CC1(F)CC3CCC(C1)N3Cc1ccccc1Br)C2 (stereo not shown) [DC54, 2-((8-(2-bromobenzyl)-3-fluoro-8-azabicyclo[3.2.1]octan-3-yl)methyl)-5,6-dimethoxy-2,3-dihydro-1H-inden-1-one] the “acetylcholinesterase inhibitory activity inhibition ratio (%)” value [1] was 90.3%.

COc1cc2c(cc1OC)C(=O)C(CC1(F)CC3CCC(C1)N3Cc1ccc([N+](=O)[O-])cc1)C2 (stereo not shown) [DC41, 2-((3-fluoro-8-(4-nitrobenzyl)-8-azabicyclo[3.2.1]octan-3-yl)methyl)-5,6-dimethoxy-2,3-dihydro-1H-inden-1-one] was tested, and the “acetylcholinesterase inhibitory activity inhibition ratio (%)” value [1] was 56.8%.

With COc1cc2c(cc1OC)C(=O)C(CC1(F)CC3CCC(C1)N3Cc1c(F)cccc1[N+](=O)[O-])C2 (stereo not shown) [DC48, 2-((3-fluoro-8-(2-fluoro-6-nitrobenzyl)-8-azabicyclo[3.2.1]octan-3-yl)methyl)-5,6-dimethoxy-2,3-dihydro-1H-inden-1-one] the “acetylcholinesterase inhibitory activity inhibition ratio (%)” value [1] was 77.3%.
